Legend:
[1] = target: recombinant Dictyostelium miozin (Dictyostelium) (Dictyostelium discoideum, UniProt P08799); assay: actomyosin steady state ATPase measurement, Dictyostelium myosin; format: biochemical; conditions: for IC50: concentration required for semi-maximal inhibition of ATPase, read-out: IC50 (μM) Dicty; for % inhibition. complete Dicty: maximum value of inhibition of ATPase activity; for inhibition at 5 µM: read-out: % inhibition at 5 μM (or 10 μM if racemate) Dicty; for inhibition at 50 µM: read-out: % inhibition at 50 μM (or 100 μM if racemate) Dicty
Sequence of recombinant Dictyostelium miozin (Dictyostelium) (P08799 whole entry): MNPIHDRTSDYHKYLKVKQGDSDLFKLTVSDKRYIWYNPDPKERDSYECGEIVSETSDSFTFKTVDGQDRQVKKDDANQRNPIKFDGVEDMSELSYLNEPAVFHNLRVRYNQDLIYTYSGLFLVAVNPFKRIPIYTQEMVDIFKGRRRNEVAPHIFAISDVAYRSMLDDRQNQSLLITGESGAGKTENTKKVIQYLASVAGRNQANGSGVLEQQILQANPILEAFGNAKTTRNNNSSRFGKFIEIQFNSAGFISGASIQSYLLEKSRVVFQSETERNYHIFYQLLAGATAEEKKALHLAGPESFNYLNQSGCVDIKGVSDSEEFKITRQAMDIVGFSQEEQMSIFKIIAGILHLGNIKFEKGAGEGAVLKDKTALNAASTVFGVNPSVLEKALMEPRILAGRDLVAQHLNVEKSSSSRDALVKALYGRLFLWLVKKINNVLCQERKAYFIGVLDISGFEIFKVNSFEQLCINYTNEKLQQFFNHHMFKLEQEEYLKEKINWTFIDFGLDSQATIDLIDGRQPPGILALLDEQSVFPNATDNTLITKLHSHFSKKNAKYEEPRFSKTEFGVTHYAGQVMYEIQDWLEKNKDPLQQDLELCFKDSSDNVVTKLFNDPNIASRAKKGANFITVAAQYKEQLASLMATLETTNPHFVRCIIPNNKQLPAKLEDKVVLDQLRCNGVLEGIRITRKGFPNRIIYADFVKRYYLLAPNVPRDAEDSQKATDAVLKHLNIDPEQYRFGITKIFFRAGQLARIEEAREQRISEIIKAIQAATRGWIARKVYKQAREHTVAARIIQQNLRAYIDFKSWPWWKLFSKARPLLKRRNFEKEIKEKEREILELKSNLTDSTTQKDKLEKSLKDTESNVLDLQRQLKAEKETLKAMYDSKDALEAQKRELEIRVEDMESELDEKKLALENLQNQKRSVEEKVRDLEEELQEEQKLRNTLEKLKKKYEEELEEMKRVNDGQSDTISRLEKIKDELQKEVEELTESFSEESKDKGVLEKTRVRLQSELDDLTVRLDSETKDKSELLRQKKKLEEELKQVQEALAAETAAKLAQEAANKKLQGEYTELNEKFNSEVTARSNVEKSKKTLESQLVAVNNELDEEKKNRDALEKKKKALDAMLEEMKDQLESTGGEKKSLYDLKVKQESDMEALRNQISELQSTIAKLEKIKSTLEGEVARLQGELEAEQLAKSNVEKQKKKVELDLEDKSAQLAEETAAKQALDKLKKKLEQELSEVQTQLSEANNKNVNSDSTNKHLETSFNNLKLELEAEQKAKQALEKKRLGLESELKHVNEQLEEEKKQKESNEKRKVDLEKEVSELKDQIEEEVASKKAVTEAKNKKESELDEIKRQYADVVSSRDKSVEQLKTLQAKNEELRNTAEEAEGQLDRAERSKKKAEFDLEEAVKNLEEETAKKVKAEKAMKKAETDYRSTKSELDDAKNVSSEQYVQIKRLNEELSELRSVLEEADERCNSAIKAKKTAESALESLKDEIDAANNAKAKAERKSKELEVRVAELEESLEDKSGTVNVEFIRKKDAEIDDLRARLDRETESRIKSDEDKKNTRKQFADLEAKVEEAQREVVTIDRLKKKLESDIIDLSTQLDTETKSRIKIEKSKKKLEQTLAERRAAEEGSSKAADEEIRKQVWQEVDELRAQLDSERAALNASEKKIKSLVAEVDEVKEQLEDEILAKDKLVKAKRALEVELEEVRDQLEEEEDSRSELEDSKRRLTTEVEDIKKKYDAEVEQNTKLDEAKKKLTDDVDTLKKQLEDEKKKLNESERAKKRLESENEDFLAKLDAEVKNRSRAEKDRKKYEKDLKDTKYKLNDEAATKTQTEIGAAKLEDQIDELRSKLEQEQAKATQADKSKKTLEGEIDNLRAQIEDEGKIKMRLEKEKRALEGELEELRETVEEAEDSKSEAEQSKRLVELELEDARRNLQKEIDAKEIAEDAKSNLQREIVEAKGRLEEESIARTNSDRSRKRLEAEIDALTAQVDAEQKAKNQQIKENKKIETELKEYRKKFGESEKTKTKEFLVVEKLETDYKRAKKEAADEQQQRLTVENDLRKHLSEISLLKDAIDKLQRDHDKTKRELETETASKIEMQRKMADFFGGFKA
Description: (§1) […]; (ii) the concentration required for semi-maximal inhibition.

[2] = target: recombinant human non-muscle myosin 2 NM2A (Homo sapiens, UniProt P35579); assay: actomyosin steady state ATPase measurement, NM2A; format: biochemical; conditions: for IC50: concentration required for semi-maximal inhibition of ATPase; for % inhibition. complete NM2A: maximum value of inhibition of ATPase activity; for inhibition at 5 µM: read-out: % inhibition at 5 μM (or 10 μM if racemate) NM2A, 5 μM (10 μM if racemate); for inhibition at 5 µM / inhibition at 50 µM: ATPase activity; for inhibition at 50 µM: read-out: % inhibition at 50 μM (or 100 μM if racemate) NM2A, 50 μM (100 μM if racemate)
Description: as §1

[3] = target: recombinant human non-muscle myosin 2 NM2B (Homo sapiens, UniProt P35580); assay: actomyosin steady state ATPase measurement, NM2B; format: biochemical
Description: as §1

[4] = target: recombinant human non-muscle myosin 2 NM2C (Homo sapiens, UniProt Q7Z406); assay: actomyosin steady state ATPase measurement, NM2C; format: biochemical; conditions: for IC50: concentration required for semi-maximal inhibition of ATPase; for % inhibition. complete NM2C: maximum value of inhibition of ATPase activity; for inhibition at 5 µM: read-out: % inhibition at 5 μM (or 10 μM if racemate) NM2C, 5 μM (10 μM if racemate); for inhibition at 5 µM / inhibition at 50 µM: ATPase activity; for inhibition at 50 µM: read-out: % inhibition at 50 μM (or 100 μM if racemate) NM2C, 50 μM (100 μM if racemate)
Description: as §1

[5] = target: T1, isolated porcine cardiac ventricular myocardium (cardiac) (Sus scrofa, UniProt P79293); assay: actomyosin steady state ATPase measurement, cardiac myosin; format: biochemical; conditions: for IC50: concentration required for semi-maximal inhibition of ATPase; for % inhibition. complete cardiac: maximum value of inhibition of ATPase activity; for inhibition at 5 µM: read-out: % inhibition at 5 μM (or 10 μM if racemate) cardiac, 5 μM (10 μM if racemate); for inhibition at 5 µM / inhibition at 50 µM: ATPase activity; for inhibition at 50 µM: read-out: % inhibition at 50 μM (or 100 μM if racemate) cardiac, 50 μM (100 μM if racemate)
T1 construct: isolated porcine cardiac ventricular myocardium (cardiac); from tissue; host or cells: porcine cardiac ventricle
Description: as §1

[6] = test system: isolated rabbit skeletal muscle myosin (skeletal); assay: actomyosin steady state ATPase measurement, skeletal muscle myosin; format: biochemical; conditions: for % inhibition at 5 μM (or 10 μM if racemate) Skeletal: 5 μM (10 μM if racemate); for % inhibition at 5 μM (or 10 μM if racemate) Skeletal / % inhibition at 50 μM (or 100 μM if racemate) Skeletal: ATPase activity; for % inhibition at 50 μM (or 100 μM if racemate) Skeletal: 50 μM (100 μM if racemate); for IC50: concentration required for semi-maximal inhibition of ATPase; for % inhibition. complete Skeletal: maximum value of inhibition of ATPase activity
Description: as §1

[7] = target: isolated smooth muscle myosin (UniProt P10587); format: biochemical, chamois; conditions: concentration required for semi-maximal inhibition of ATPase
Sequence of isolated smooth muscle myosin (P10587 whole entry): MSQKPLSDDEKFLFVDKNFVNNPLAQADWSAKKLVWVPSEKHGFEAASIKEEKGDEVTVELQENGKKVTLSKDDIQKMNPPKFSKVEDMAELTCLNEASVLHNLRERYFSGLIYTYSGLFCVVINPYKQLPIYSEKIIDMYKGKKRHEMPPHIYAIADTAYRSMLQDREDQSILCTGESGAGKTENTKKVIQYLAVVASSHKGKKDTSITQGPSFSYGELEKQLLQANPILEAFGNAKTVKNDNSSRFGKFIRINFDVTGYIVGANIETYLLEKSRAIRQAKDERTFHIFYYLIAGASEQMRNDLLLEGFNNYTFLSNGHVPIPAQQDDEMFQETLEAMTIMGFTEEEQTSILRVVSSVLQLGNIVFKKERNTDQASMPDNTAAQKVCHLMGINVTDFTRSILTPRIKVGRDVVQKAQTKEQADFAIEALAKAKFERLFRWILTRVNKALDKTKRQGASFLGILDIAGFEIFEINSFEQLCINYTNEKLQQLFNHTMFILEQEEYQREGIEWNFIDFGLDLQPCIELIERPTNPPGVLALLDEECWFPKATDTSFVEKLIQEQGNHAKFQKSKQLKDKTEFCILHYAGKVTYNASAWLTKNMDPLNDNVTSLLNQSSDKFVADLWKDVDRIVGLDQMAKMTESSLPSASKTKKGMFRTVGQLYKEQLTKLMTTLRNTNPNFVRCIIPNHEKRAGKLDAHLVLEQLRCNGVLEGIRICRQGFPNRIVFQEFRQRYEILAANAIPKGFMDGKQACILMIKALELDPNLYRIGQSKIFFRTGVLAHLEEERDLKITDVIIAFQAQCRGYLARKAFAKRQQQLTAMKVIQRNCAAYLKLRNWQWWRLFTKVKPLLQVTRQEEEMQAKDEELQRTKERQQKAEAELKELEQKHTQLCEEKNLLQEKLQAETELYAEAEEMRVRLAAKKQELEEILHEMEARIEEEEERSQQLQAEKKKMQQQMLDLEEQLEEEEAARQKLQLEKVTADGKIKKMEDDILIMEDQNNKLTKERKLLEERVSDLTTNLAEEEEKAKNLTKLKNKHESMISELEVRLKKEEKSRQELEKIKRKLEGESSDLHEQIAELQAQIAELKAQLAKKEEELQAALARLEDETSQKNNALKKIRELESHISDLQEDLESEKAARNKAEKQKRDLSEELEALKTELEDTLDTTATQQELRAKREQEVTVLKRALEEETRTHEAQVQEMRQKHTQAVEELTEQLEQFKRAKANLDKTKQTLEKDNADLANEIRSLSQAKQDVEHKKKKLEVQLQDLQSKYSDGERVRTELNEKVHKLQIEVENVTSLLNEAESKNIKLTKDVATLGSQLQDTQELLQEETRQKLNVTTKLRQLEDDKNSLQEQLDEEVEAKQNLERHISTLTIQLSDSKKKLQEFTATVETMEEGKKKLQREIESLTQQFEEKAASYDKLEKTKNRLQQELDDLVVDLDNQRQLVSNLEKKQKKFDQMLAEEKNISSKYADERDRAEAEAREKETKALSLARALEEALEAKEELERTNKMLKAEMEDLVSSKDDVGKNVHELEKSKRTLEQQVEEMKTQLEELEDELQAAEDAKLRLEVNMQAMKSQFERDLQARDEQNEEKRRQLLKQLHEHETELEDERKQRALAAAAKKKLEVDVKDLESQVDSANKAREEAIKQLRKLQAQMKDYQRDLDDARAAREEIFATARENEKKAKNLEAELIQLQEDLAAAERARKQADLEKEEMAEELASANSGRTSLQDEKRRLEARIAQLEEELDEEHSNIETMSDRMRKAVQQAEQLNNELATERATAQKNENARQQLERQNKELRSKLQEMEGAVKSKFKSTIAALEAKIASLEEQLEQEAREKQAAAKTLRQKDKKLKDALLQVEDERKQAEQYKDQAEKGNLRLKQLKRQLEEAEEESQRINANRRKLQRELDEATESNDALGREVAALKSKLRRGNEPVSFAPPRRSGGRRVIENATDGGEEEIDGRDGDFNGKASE
Description: (ii) the concentration required for semi-maximal inhibition.

[8] = solubility in PBS in the presence of 1% DMSO; format: physicochemical; conditions: phosphate buffered saline with 1% DMSO, aqueous buffer, kinetic from dmso stock, PBS w/o Mg, Ca
[9] = target: isolated smooth muscle myosin (UniProt P10587); format: biochemical, chamois; conditions: for % inhibition at 5 μM (or 10 μM if racemate) Smooth: 5 μM (10 μM if racemate); for % inhibition at 5 μM (or 10 μM if racemate) Smooth / % inhibition at 50 μM (or 100 μM if racemate) Smooth: ATPase activity; for % inhibition at 50 μM (or 100 μM if racemate) Smooth: 50 μM (100 μM if racemate); for % inhibition. complete Smooth: maximum value of inhibition of ATPase activity

SMILES | IC50 [1] | % inhibition. complete Dicty [1] | inhibition at 5 µM [1] | inhibition at 50 µM [1] | IC50 [2] | % inhibition. complete NM2A [2] | inhibition at 5 µM [2] | inhibition at 50 µM [2] | IC50 [4] | % inhibition. complete NM2C [4] | inhibition at 5 µM [4] | inhibition at 50 µM [4] | IC50 [5] | % inhibition. complete cardiac [5] | inhibition at 5 µM [5] | inhibition at 50 µM [5] | % inhibition at 5 μM (or 10 μM if racemate) Skeletal [6] | % inhibition at 50 μM (or 100 μM if racemate) Skeletal [6] | IC50 [6] | % inhibition. complete Skeletal [6] | further results
O=C1c2ccsc2N=C2N(c3ccccc3)CCC12O (stereo not shown) [Compound 180, 9-Hydroxy-12-phenyl-4-thia-2,12-diazatricyclo[7.3.0.0^3,7]dodeca-1,3(7),5-trien-8-one] | 13.1 µM | 85% | 22% | 67% | 9.8 µM | 48% | 15% | 44% | 9.3 µM | 60% | 20% | 55% | 5.1 µM | 89% | 42% | 81% | 87% | 96% | 0.81 µM | 99% | Inhibition (%) NM2A ([2]; maximum inhibition, compounds in IC50 range 5-10 μM): 48%; IC50 ([3]; concentration required for semi-maximal inhibition of ATPase): 18.7 µM; % inhibition. complete NM2B ([3]; maximum value of inhibition of ATPase activity): 60%; inhibition at 5 µM ([3]; read-out: % inhibition at 5 μM (or 10 μM if racemate) NM2B, 5 μM (10 μM if racemate), ATPase activity): 14%; inhibition at 50 µM ([3]; read-out: % inhibition at 50 μM (or 100 μM if racemate) NM2B, 50 μM (100 μM if racemate), ATPase activity): 44%; Inhibition (%) cardiac ([5]; maximum inhibition, compounds in IC50 range 3-6 μM): 89%; IC50 [7]: 14 µM; solubility [8]: 2400 µM; % inhibition at 5 μM (or 10 μM if racemate) Smooth [9]: 16%; % inhibition at 50 μM (or 100 μM if racemate) Smooth [9]: 38%; % inhibition. complete Smooth [9]: 58%
Nc1ccc(N2CC[C@@]3(O)C(=O)c4ccsc4N=C23)cc1 [Compound 210, (9S)-12-(4-aminophenyl)-9-hydroxy-4-thia-2,12-diazatricyclo[7.3.0.0^3,7]dodeca-1,3(7),5-trien-8-one] | > 100 µM | 100% | 3% | 34% | > 100 µM | 100% | 0% | 14% | 5.2 µM | 41% | 18% | 38% | 6 µM | 82% | 36% | 73% | 44% | 84% | 5.6 µM | 94% | IC50 [7]: 12.5 µM; solubility [8]: 1360 µM; % inhibition at 5 μM (or 10 μM if racemate) Smooth [9]: 9%; % inhibition at 50 μM (or 100 μM if racemate) Smooth [9]: 28%; % inhibition. complete Smooth [9]: 37%
COc1ccc(N2CC[C@@]3(O)C(=O)c4ccsc4N=C23)cc1 [Compound 211, (9S)-9-hydroxy-12-(4-methoxyphenyl)-4-thia-2,12-diazatricyclo[7.3.0.0^3,7]dodeca-1,3(7),5-trien-8-one] | 9.4 µM | 100% | 33% | 85% | 22 µM | 99% | 17% | 69% | 2 µM | 70% | 46% | 67% | 1.3 µM | 87% | 67% | 85% | 93% | 98% | 0.28 µM | 98% | IC50 [7]: 7 µM; solubility [8]: 510 µM; % inhibition at 5 μM (or 10 μM if racemate) Smooth [9]: 34%; % inhibition at 50 μM (or 100 μM if racemate) Smooth [9]: 74%; % inhibition. complete Smooth [9]: 85%
N#Cc1ccc(N2CC[C@@]3(O)C(=O)c4ccsc4N=C23)cc1 [Compound 213, (9S)-4-{9-Hydroxy-8-oxo-4-thia-2,12-diazatricyclo[7.3.0.0^3,7]dodeca-1,3(7),5-trien-12-yl}benzonitrile] | 3.5 µM | 87% | 50% | 81% | 23 µM | 74% | 13% | 51% | 8 µM | 63% | 22% | 54% | 1.8 µM | 87% | 61% | 84% | 89% | 98% | 0.58 µM | 99% | Inhibition (%) Dicty ([1]; maximum inhibition, compounds in IC50 range 1-11 μM): 87%; IC50 [7]: 18 µM; solubility [8]: 410 µM; % inhibition at 5 μM (or 10 μM if racemate) Smooth [9]: 16%; % inhibition at 50 μM (or 100 μM if racemate) Smooth [9]: 57%; % inhibition. complete Smooth [9]: 78%
CC(=O)c1ccc(N2CC[C@@]3(O)C(=O)c4ccsc4N=C23)cc1 [Compound 214, (9S)-12-(4-acetylphenyl)-9-hydroxy-4-thia-2,12-diazatricyclo[7.3.0.0^3,7]dodeca-1,3(7),5-trien-8-one] | 36 µM | 100% | 8% | 59% | 1 µM | 32% | 25% | 31% | 2.9 µM | 36% | 21% | 34% | 8.8 µM | 86% | 30% | 73% | 80% | 97% | 1.2 µM | 100% | Inhibition (%) NM2C ([4]; maximum inhibition, compounds in IC50 range 1-5 μM): 36%; IC50 [7]: 49 µM; solubility [8]: 820 µM; % inhibition at 5 μM (or 10 μM if racemate) Smooth [9]: 6%; % inhibition at 50 μM (or 100 μM if racemate) Smooth [9]: 52%; % inhibition. complete Smooth [9]: 100%
